According to PMC11851430, “Workflow for E3 Ligase Ligand Validation for PROTAC Development” (ACS Chemical Biology, 2025):

Columns and labels:
DYRK1A = molecular target: T1, DYRK1A (Homo sapiens, UniProt Q13627); experiment: DSF assay; assay type: binding; conditions: 20 µM compound
T1 construct: purchased in-house DSF panel (SGC-style construct names; the trailing A/B is a construct suffix)

MAP2K4 = molecular target: T2, MAP2K4 (Homo sapiens, UniProt P45985); experiment: DSF assay; assay type: binding; conditions: 20 µM compound
T2 construct: purchased in-house DSF panel (SGC-style construct names; the trailing A/B is a construct suffix)
T2 sequence (P45985 102-367): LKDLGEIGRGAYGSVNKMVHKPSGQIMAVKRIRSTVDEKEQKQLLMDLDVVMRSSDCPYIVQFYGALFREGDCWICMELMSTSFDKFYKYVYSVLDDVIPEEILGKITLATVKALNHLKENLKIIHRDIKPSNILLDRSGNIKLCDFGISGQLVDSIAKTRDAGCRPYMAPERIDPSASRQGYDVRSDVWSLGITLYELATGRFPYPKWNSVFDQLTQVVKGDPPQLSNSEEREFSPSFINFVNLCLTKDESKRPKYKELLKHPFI

STK3A = molecular target: T3, STK3A (Homo sapiens, UniProt Q13188); experiment: DSF assay; assay type: binding; conditions: 20 µM compound
T3 construct: purchased in-house DSF panel (SGC-style construct names; the trailing A/B is a construct suffix)
T3 sequence (Q13188 16-313): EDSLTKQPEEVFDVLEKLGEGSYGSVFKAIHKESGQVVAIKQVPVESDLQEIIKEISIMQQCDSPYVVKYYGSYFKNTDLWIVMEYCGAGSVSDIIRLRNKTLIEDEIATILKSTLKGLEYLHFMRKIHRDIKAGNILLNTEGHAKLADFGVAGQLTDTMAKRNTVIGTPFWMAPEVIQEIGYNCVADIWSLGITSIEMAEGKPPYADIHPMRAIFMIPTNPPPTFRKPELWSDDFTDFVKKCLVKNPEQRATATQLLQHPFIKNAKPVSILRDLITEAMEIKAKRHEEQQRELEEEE

EPHA7A = molecular target: T4, EPHA7A (Homo sapiens, UniProt Q15375); experiment: DSF assay; assay type: binding; conditions: 20 µM compound
T4 construct: purchased in-house DSF panel (SGC-style construct names; the trailing A/B is a construct suffix)

FESA = molecular target: T5, FESA (Homo sapiens, UniProt P07332); experiment: DSF assay; assay type: binding; conditions: 20 µM compound
T5 construct: purchased in-house DSF panel (SGC-style construct names; the trailing A/B is a construct suffix)

STK17B = molecular target: T6, STK17B (Homo sapiens, UniProt O94768); experiment: DSF assay; assay type: binding; conditions: 20 µM compound
T6 construct: purchased in-house DSF panel (SGC-style construct names; the trailing A/B is a construct suffix)
T6 sequence (O94768 25-329): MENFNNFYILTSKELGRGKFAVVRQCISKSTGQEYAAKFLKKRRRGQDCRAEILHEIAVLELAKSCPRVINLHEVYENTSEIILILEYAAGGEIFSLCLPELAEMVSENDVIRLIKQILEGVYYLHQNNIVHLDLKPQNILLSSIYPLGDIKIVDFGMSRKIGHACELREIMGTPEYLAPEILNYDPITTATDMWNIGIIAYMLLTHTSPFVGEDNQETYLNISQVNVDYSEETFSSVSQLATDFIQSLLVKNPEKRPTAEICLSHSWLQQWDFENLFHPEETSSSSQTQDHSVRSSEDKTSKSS

[1] = molecular target: T7, kinase protein levels in MCF-7 cells (Homo sapiens, UniProt A0A0B4J2F0); experiment: TMT-labeled quantitative proteomics; assay type: cell-based; conditions: protein PIGBOS1, MCF7, 1 µM
T7 construct: endogenous in cells; host or cells: MCF-7
T7 sequence (A0A0B4J2F0 1-54): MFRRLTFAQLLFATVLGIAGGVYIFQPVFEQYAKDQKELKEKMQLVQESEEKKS

T4 sequence (Q15375 590-899): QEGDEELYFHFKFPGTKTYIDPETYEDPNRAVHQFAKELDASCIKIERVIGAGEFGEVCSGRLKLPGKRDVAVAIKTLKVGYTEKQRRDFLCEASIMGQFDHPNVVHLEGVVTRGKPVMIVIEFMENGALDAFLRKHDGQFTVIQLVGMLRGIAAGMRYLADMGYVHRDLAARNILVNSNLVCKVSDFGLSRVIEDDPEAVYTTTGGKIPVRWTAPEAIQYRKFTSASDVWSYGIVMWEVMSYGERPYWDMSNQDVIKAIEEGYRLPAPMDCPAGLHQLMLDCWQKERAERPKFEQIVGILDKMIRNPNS
T5 sequence (P07332 whole entry): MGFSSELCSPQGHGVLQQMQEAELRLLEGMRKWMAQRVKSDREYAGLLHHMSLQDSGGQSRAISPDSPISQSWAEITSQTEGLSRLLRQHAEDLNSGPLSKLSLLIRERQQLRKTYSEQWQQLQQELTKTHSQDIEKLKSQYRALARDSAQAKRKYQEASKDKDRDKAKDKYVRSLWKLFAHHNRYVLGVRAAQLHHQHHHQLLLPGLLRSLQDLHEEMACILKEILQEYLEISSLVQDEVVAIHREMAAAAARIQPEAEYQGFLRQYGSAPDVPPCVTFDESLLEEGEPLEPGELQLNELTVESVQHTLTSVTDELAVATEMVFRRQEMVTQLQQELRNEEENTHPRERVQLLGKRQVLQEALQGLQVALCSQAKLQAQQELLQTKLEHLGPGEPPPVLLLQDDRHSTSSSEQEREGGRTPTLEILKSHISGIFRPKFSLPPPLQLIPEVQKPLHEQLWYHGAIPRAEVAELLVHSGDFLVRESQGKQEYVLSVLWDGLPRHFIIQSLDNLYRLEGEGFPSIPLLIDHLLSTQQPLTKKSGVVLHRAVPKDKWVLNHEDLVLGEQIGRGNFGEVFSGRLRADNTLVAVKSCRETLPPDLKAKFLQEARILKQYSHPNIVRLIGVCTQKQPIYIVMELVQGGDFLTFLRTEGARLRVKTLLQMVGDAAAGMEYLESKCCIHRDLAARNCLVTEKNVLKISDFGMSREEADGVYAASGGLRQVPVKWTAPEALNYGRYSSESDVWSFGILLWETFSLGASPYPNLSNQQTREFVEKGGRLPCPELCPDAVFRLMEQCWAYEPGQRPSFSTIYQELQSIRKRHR

| ΔTm at 20 µM (DYRK1A) [°C] | ΔTm at 20 µM (MAP2K4) [°C] | ΔTm at 20 µM (STK3A) [°C] | ΔTm at 20 µM (EPHA7A) [°C] | ΔTm at 20 µM (FESA) [°C] | ΔTm at 20 µM (STK17B) [°C] | P.Value (compound/DMSO) ([1]; set1.1) | log2FC (compound/DMSO) ([1]; set1.1) | P.Value (compound/DMSO) ([1]; set2) | log2FC (compound/DMSO) ([1]; set2) | Compound |
| --- | --- | --- | --- | --- | --- | --- | --- | --- | --- | --- |
| 6.85 | 5.55 | 9.87 | 3.39 | 3.17 | 2.58 |  |  |  |  | CCOC(=O)c1cc(Nc2cc(C3CC3)[nH]n2)nc(Nc2ccc(CC#N)cc2)n1 [compound 5] |
| 7.48 | 2.65 | 8.18 | 1.51 | 4.19 | 1.6 |  |  |  |  | CC(C)(C)OC(=O)NCCOCCOCCOCCOCCC(=O)N1CCN(c2cc(Nc3cc(C4CC4)[nH]n3)nc(Nc3ccc(CC#N)cc3)n2)CC1 [4-L] |
|  |  |  |  |  |  | 0.6062 | -0.04609 |  |  | Cc1ncsc1-c1ccc(CNC(=O)[C@@H]2C[C@@H](O)CN2C(=O)[C@@H](NC(=O)CCOCCOCCOCCOCCN2CCN(c3ccc(Nc4ncc(Cl)c(Nc5ccccc5C(N)=O)n4)cc3)CC2)C(C)(C)C)cc1 [6-b] |
|  |  |  |  |  |  | 0.3761 | 0.1046 |  |  | Cc1ncsc1-c1ccc(CNC(=O)[C@@H]2C[C@@H](O)CN2C(=O)[C@@H](NC(=O)CCOCCOCCOCCN2CCN(c3cc(Nc4cc(C5CC5)[nH]n4)nc(Nc4ccc(CC#N)cc4)n3)CC2)C(C)(C)C)cc1 [4-a] |
|  |  |  |  |  |  |  |  | 0.4063 | 0.08613 | CC(=O)N[C@H](C(=O)N1C[C@H](O)C[C@H]1C(=O)NCc1ccc(-c2scnc2C)cc1OCCOCCOCCOCCOCCC(=O)N1CCN(c2ccc(Nc3ncc(Cl)c(Nc4ccccc4C(N)=O)n3)cc2)CC1)C(C)(C)C [6-e] |
| 8.01 | 2.91 | 8.81 | 2.65 | 2.67 | 1.81 |  |  |  |  | CC(C)(C)OC(=O)NCCCOCCOCCOCCCNC(=O)c1cc(Nc2cc(C3CC3)[nH]n2)nc(Nc2ccc(CC#N)cc2)n1 [5-L] |
|  |  |  |  |  |  |  |  | 0.8938 | 0.0131 | CC(=O)N[C@H](C(=O)N1C[C@H](O)C[C@H]1C(=O)NCc1ccc(-c2scnc2C)cc1OCCOCCOCCOCCNC(=O)c1cc(Nc2cc(C3CC3)[nH]n2)nc(Nc2ccc(CC#N)cc2)n1)C(C)(C)C [5-b] |
|  |  |  |  |  |  | 0.533 | 0.05527 |  |  | Cc1ncsc1-c1ccc(CNC(=O)[C@@H]2C[C@@H](O)CN2C(=O)[C@@H](NC(=O)CCOCCOCCNC(=O)c2cc(Nc3cc(C4CC4)[nH]n3)nc(Nc3ccc(CC#N)cc3)n2)C(C)(C)C)cc1 [5-a] |
